The values below come from patent US9179674B2, “Macrocyclic picolinamide compounds with fungicidal activity” (DOW AGROSCIENCES LLC, priority 2013, dated 2015).

Like-named read-outs stand apart in the source and are kept apart here.

Data set [1] concerns Mycosphaerella graminicola; Anamorph: Septoria tritici. Kind of data set: Leaf Blotch of Wheat fungicidal activity (SEPTTR). To be noted: Zymoseptoria tritici; for pest or weed control at 100 ppm: rate 100 ppm; for pest or weed control at 121.5 g/ha: rate 121.5 g/H. It is filed as in vivo. The gist of the method:
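Acetone solutions diluted with nine volumes of water containing 110 ppm Triton X-100, sprayed to run-off on first-leaf wheat seedlings (Yuma), inoculated with S. tritici before or after treatment. Plants held in dew chambers, then in a 20 °C greenhouse. Disease severity (0–100%) scored when untreated plants fully symptomatic; % control relative to untreated.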

Another data set has as its system Puccinia triticina. Description: Wheat Brown Rust fungicidal activity (PUCCRT). The data set is classed as in vivo. The following applies: Puccinia triticina; for pest or weed control at 100 ppm: rate 100 ppm; for pest or weed control at 121.5 g/ha: rate 121.5 g/H. The procedure, abridged: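 Yuma wheat seedlings at first-leaf stage sprayed to run-off (acetone solution in water with 110 ppm Triton X-100) or track-sprayed as EC with 0.1% Trycol 5941; inoculated with P. triticina spores before or after treatment. Overnight dark dew at 22° C., then greenhouse 24° C.; disease severity 0–100% gives percent control vs untreated.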

Where [2] appears, read: 24 h, 1 Day Protectant, read-out: Disease control SEPTTR 1DP.
The mark [3] stands for this setting: 72 h, 3 Day Curative, read-out: Disease control SEPTTR 3DC.
The mark [4] stands for this setting: 24 h, 1 Day Protectant, read-out: Disease control PUCCRT 1DP.
Where [5] appears, read: 72 h, 3 Day Curative, read-out: Disease control PUCCRT 3DC.

One may read the melting point as the temperature, or range, at which the solid turns liquid. Compound `COc1ccnc(C(=O)N[C@H]2COC[C@H](CCc3ccccc3)[C@@H](OCCCC(F)(F)F)[C@H](C)OC2=O)c1OC(C)=O` [Compound F49] registered a melting point of 59 to 64 °C. In data set [1] (setting [2]), the pest or weed control at 100 ppm was 80 to 100% and the pest or weed control at 121.5 g/ha was 80 to 100%. Further, in data set [1] (setting [3]), the pest or weed control at 100 ppm lay in the range of 80 to 100% and the pest or weed control at 121.5 g/ha was 80 to 100%. In the data set with Puccinia triticina (setting [4]), the pest or weed control at 100 ppm was 80 to 100% and the pest or weed control at 121.5 g/ha lay within 80 to 100%. Further, in the data set on Puccinia triticina (setting [5]), the pest or weed control at 100 ppm was 80 to 100% and the pest or weed control at 121.5 g/ha fell in the range of 0 to 80%.

The compound `COc1ccnc(C(=O)N[C@H]2COC[C@H](Cc3ccc(Cl)cc3Cl)[C@@H](OCC(C)C)[C@H](C)OC2=O)c1O` [Compound F42] returned a melting point of 60 to 64 °C. The pest or weed control at 100 ppm in data set [1] (setting [2]) lay within 80 to 100%. Besides, the pest or weed control at 100 ppm in data set [1] (setting [3]) was 80 to 100%. Further, in the data set with Puccinia triticina (setting [4]), the pest or weed control at 100 ppm was 80 to 100%. The pest or weed control at 100 ppm in the data set on Puccinia triticina (setting [5]) was in the range of 80 to 100%.

Take `COc1ccnc(C(=O)N[C@H]2COC[C@H](CC3CCCC3)[C@@H](OCC(C)C)[C@H](C)OC2=O)c1OC(C)=O` [Compound F78]: the melting point lay in the range of 56 to 59 °C. The pest or weed control at 100 ppm in data set [1] (setting [2]) is 80 to 100%. The pest or weed control at 100 ppm in data set [1] (setting [3]) is 80 to 100%. For the same compound, the pest or weed control at 100 ppm with Puccinia triticina (setting [4]) was 80 to 100%. Also, the pest or weed control at 100 ppm in the data set on Puccinia triticina (setting [5]) was in the range of 80 to 100%.

`COc1ccnc(C(=O)N[C@H]2COC[C@H](CCc3ccccc3)[C@@H](OC3CCCC3)[C@H](C)OC2=O)c1OCOC(C)=O` [Compound F81]: the melting point fell in the range of 45 to 50 °C. Also, in data set [1] (setting [2]), the pest or weed control at 100 ppm fell in the range of 80 to 100%. In addition, the pest or weed control at 100 ppm in data set [1] (setting [3]) fell in the range of 80 to 100%. Further, in the data set with Puccinia triticina (setting [4]), the pest or weed control at 100 ppm fell in the range of 80 to 100%. In addition, in the data set with Puccinia triticina (setting [5]), the pest or weed control at 100 ppm fell in the range of 80 to 100%.

On to `COc1ccnc(C(=O)N[C@H]2COC[C@H](Cc3cccc4ccccc34)[C@@H](OC(=O)C(C)C)[C@H](C)OC2=O)c1O` [Compound F5, (3S,6S,7R,8S)-3-(3-hydroxy-4-methoxypicolin-amido)-6-methyl-8-(naphthalen-1-ylmethyl)-4-oxo-1,5-dioxonan-7-yl isobutyrate], for which the melting point fell in the range of 139 to 142 °C. Further, the pest or weed control at 100 ppm in data set [1] (setting [2]) fell in the range of 80 to 100%. The pest or weed control at 100 ppm in data set [1] (setting [3]) lay in the range of 0 to 80%. For the same compound, the pest or weed control at 100 ppm with Puccinia triticina (setting [4]) was in the range of 0 to 80%. For the same compound, the pest or weed control at 100 ppm with Puccinia triticina (setting [5]) fell in the range of 0 to 80%.

`CCCCCO[C@@H]1[C@@H](Cc2cccc3ccccc23)COC[C@H](NC(=O)c2nccc(OC)c2O)C(=O)O[C@H]1C` [Compound F7] registered a melting point of 116 to 120 °C. Moreover, the pest or weed control at 100 ppm in data set [1] (setting [2]) lay in the range of 80 to 100%. For the same compound, the pest or weed control at 100 ppm in data set [1] (setting [3]) lay in the range of 0 to 80%. Also, the pest or weed control at 100 ppm in the data set with Puccinia triticina (setting [4]) is 80 to 100%. For the same compound, the pest or weed control at 100 ppm in the data set with Puccinia triticina (setting [5]) fell in the range of 0 to 80%.

In turn, `COc1ccnc(C(=O)N[C@H]2COC[C@H](CCc3ccccc3)[C@@H](OCCCC(F)(F)F)[C@H](C)OC2=O)c1O` [Compound F2] displayed a melting point of 78 to 81 °C. Further, in data set [1] (setting [2]), the pest or weed control at 100 ppm lay in the range of 80 to 100%. In data set [1] (setting [3]), the pest or weed control at 100 ppm was in the range of 80 to 100%. For the same compound, the pest or weed control at 100 ppm in the data set with Puccinia triticina (setting [4]) is 80 to 100%. Besides, the pest or weed control at 100 ppm in the data set with Puccinia triticina (setting [5]) was in the range of 0 to 80%.

Compound `COc1ccnc(C(=O)N[C@H]2COC[C@H](Cc3ccc(F)cc3)[C@@H](OC(=O)C(C)C)[C@H](C)OC2=O)c1O` [Compound F14] gave a melting point of 66 to 71 °C. Also, the pest or weed control at 100 ppm in data set [1] (setting [2]) is 80 to 100%. Besides, the pest or weed control at 100 ppm in data set [1] (setting [3]) fell in the range of 80 to 100%. In the data set on Puccinia triticina (setting [4]), the pest or weed control at 100 ppm fell in the range of 80 to 100%. Moreover, the pest or weed control at 100 ppm with Puccinia triticina (setting [5]) lay in the range of 80 to 100%.

`COc1ccnc(C(=O)N[C@H]2COC[C@H](Cc3ccc(C)cc3)[C@@H](OC(=O)C(C)C)[C@H](C)OC2=O)c1OCOC(C)=O` [Compound F89] returned a melting point of 43 to 47 °C. Further, the pest or weed control at 100 ppm in data set [1] (setting [2]) lay within 80 to 100%. For the same compound, the pest or weed control at 100 ppm in data set [1] (setting [3]) was in the range of 80 to 100%. In the data set with Puccinia triticina (setting [4]), the pest or weed control at 100 ppm was in the range of 80 to 100%. In addition, the pest or weed control at 100 ppm in the data set on Puccinia triticina (setting [5]) was in the range of 80 to 100%.

Regarding `COc1ccnc(C(=O)N[C@H]2COC[C@H](Cc3cccc4ccccc34)[C@@H](OC3CCCC3)[C@H](C)OC2=O)c1O` [Compound F9], the melting point is 78 to 85 °C. Moreover, the pest or weed control at 100 ppm in data set [1] (setting [2]) lay in the range of 80 to 100%. Besides, the pest or weed control at 100 ppm in data set [1] (setting [3]) was 80 to 100%. Besides, in the data set with Puccinia triticina (setting [4]), the pest or weed control at 100 ppm fell in the range of 80 to 100%.

Compound `COc1ccnc(C(=O)N[C@H]2COC[C@H](Cc3ccc(C)cc3)[C@@H](OC(=O)C(C)C)[C@H](C)OC2=O)c1O` [Compound F12] came in with a melting point of 67 to 72 °C. Further, in data set [1] (setting [2]), the pest or weed control at 100 ppm was in the range of 80 to 100%. Further, in data set [1] (setting [3]), the pest or weed control at 100 ppm was 80 to 100%. Also, the pest or weed control at 100 ppm with Puccinia triticina (setting [4]) fell in the range of 80 to 100%. Besides, the pest or weed control at 100 ppm in the data set on Puccinia triticina (setting [5]) was in the range of 80 to 100%.

With `COc1ccnc(C(=O)N[C@H]2COC[C@H](Cc3ccc(Cl)cc3Cl)[C@@H](OC(=O)C(C)C)[C@H](C)OC2=O)c1OCOC(=O)C(C)C` [Compound F119], the melting point was 57 to 60 °C. In data set [1] (setting [2]), the pest or weed control at 100 ppm lay within 80 to 100%. Besides, the pest or weed control at 100 ppm in data set [1] (setting [3]) is 80 to 100%. The pest or weed control at 100 ppm with Puccinia triticina (setting [4]) is 80 to 100%. Besides, in the data set on Puccinia triticina (setting [5]), the pest or weed control at 100 ppm is 80 to 100%.

`COc1ccnc(C(=O)N[C@H]2COC[C@H](CC3CCCC3)[C@@H](OC(=O)C(C)C)[C@H](C)OC2=O)c1OC(C)=O` [Compound F77] displayed a melting point of 66 to 69 °C. Also, in data set [1] (setting [2]), the pest or weed control at 100 ppm is 80 to 100% and the pest or weed control at 121.5 g/ha was 80 to 100%. Besides, in data set [1] (setting [3]), the pest or weed control at 100 ppm is 80 to 100% and the pest or weed control at 121.5 g/ha is 80 to 100%. For the same compound, in the data set with Puccinia triticina (setting [4]), the pest or weed control at 100 ppm is 80 to 100% and the pest or weed control at 121.5 g/ha was in the range of 80 to 100%. In the data set with Puccinia triticina (setting [5]), the pest or weed control at 100 ppm was 80 to 100% and the pest or weed control at 121.5 g/ha was 80 to 100%.

`CCCCCO[C@@H]1[C@@H](Cc2cccc3ccccc23)COC[C@H](NC(=O)c2nccc(OC)c2OC(C)=O)C(=O)O[C@H]1C` [Compound F52]: the melting point lay within 85 to 91 °C. Besides, the pest or weed control at 100 ppm in data set [1] (setting [2]) lay within 80 to 100%. The pest or weed control at 100 ppm in data set [1] (setting [3]) is 80 to 100%. The pest or weed control at 100 ppm with Puccinia triticina (setting [4]) is 80 to 100%. Besides, the pest or weed control at 100 ppm with Puccinia triticina (setting [5]) is 0 to 80%.

`CCCCCO[C@@H]1[C@@H](Cc2ccc(Cl)cc2Cl)COC[C@H](NC(=O)c2nccc(OC)c2OCOC(C)=O)C(=O)O[C@H]1C` [Compound F112] yielded a melting point of 53 to 57 °C. Also, the pest or weed control at 121.5 g/ha in data set [1] (setting [2]) lay in the range of 80 to 100%. Moreover, the pest or weed control at 121.5 g/ha in data set [1] (setting [3]) was in the range of 80 to 100%. Further, the pest or weed control at 121.5 g/ha in the data set on Puccinia triticina (setting [4]) lay in the range of 80 to 100%. For the same compound, the pest or weed control at 121.5 g/ha in the data set with Puccinia triticina (setting [5]) fell in the range of 0 to 80%.

As to `COc1ccnc(C(=O)N[C@H]2COC[C@H](Cc3cccc4ccccc34)[C@@H](Oc3ccc(C)cc3)[C@H](C)OC2=O)c1O` [Compound F8], the melting point is 94 to 98 °C. Also, the pest or weed control at 100 ppm in data set [1] (setting [2]) was 80 to 100%. Further, the pest or weed control at 100 ppm in data set [1] (setting [3]) lay in the range of 0 to 80%. In addition, in the data set with Puccinia triticina (setting [4]), the pest or weed control at 100 ppm was in the range of 80 to 100%. In addition, in the data set with Puccinia triticina (setting [5]), the pest or weed control at 100 ppm is 0 to 80%.

Compound `COc1ccnc(C(=O)N[C@H]2COC[C@H](Cc3ccc(Cl)cc3Cl)[C@@H](Oc3ccc(C)cc3)[C@H](C)OC2=O)c1OC(C)=O` [Compound F76] displayed a melting point of 97 to 101 °C. Besides, in data set [1] (setting [2]), the pest or weed control at 100 ppm fell in the range of 0 to 80% and the pest or weed control at 121.5 g/ha is 80 to 100%. Further, in the data set on Puccinia triticina (setting [4]), the pest or weed control at 100 ppm was 80 to 100% and the pest or weed control at 121.5 g/ha fell in the range of 80 to 100%. Besides, the pest or weed control at 121.5 g/ha in the data set with Puccinia triticina (setting [5]) lay in the range of 0 to 80%.
